Assay results from US20250205344A1, “2,4-DIOXOTETRAHYDROPYRIMIDINYL DERATIVES AS DEGRONS IN PROTACS” (GLAXOSMITHKLINE INTELLECTUAL PROPERTY DEVELOPMENT LIMITED, priority 2022, published 2025).
Counter-ions that a name gives are not always drawn.

Biological target: T1, Androgen Receptor (Homo sapiens, UniProt P10275, T878A)
T1 construct: the AR gene was modified, using CRISPR/Cas9 editing, so the expressed AR protein included an 11 amino acid HiBiT tag; endogenous in cells; host or cells: clonal LnCaP-derived line, AR gene edited by CRISPR/Cas9
T1 sequence (P10275 whole entry T878A): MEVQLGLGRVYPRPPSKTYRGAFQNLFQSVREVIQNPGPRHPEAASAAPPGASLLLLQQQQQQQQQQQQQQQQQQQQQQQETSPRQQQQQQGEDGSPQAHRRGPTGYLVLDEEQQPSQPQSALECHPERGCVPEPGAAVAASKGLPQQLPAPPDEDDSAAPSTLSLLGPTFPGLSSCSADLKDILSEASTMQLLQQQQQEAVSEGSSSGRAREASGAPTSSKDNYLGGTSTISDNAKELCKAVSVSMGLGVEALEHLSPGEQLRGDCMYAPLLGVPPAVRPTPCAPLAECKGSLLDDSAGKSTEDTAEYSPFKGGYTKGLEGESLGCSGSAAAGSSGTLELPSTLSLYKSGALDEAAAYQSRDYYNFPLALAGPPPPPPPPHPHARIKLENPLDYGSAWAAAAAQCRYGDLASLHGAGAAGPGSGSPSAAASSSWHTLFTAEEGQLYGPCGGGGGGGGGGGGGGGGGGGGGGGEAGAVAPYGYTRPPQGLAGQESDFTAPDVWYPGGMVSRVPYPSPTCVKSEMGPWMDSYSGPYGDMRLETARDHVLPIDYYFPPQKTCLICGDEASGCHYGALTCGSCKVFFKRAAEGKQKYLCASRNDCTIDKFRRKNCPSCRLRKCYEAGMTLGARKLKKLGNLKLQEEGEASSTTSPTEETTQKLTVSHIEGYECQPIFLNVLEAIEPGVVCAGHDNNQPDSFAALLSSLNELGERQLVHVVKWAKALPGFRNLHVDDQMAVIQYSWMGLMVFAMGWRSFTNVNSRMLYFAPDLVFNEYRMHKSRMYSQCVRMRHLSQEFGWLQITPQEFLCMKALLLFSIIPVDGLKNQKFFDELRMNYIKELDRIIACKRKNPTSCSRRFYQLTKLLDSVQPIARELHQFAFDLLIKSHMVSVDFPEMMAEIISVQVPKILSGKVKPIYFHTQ
T1 sequence (Q96SW2 whole entry partner): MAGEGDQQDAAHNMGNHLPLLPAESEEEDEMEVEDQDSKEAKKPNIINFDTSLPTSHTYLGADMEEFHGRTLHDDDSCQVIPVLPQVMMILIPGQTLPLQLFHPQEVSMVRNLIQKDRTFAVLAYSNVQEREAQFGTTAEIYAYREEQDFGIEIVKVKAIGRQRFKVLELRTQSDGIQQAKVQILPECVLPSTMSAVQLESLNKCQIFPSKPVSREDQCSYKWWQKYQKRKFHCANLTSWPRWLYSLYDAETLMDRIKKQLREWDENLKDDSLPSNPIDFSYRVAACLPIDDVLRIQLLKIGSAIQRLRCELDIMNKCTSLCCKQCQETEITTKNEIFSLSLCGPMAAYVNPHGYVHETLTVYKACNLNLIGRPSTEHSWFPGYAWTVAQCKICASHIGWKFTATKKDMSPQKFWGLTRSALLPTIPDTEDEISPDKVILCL
T1 sequence (Q16531 whole entry partner): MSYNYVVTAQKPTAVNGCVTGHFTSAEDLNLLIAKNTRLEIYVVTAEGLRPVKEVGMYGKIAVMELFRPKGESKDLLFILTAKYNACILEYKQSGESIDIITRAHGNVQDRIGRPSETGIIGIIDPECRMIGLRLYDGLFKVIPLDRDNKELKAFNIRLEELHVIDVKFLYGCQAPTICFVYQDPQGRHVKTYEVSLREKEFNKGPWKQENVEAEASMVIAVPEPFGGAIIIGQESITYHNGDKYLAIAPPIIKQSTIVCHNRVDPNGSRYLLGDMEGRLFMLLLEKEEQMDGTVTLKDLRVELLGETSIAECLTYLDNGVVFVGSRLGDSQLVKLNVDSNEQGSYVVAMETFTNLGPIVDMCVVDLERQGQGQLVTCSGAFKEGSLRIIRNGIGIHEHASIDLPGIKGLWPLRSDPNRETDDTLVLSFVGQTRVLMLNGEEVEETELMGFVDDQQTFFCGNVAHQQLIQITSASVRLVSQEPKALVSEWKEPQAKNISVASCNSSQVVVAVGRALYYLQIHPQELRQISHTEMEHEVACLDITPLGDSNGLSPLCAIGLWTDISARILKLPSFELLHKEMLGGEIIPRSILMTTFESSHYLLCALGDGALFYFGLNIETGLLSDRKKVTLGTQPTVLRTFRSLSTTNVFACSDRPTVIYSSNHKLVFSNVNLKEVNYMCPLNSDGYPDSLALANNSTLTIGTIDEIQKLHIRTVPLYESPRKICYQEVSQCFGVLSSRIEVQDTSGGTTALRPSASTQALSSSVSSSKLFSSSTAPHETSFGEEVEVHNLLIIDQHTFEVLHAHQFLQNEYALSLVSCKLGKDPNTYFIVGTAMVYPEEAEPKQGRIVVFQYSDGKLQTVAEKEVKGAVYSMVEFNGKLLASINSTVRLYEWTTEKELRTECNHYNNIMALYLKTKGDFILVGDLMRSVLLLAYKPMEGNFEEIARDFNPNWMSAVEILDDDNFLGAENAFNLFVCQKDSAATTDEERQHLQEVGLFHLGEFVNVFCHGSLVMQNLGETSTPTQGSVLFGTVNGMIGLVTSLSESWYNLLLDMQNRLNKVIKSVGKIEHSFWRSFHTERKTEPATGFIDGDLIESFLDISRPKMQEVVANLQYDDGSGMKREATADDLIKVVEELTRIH
Experiment: Androgen Receptor Degradation Assay (Nano-Glo HiBiT)
Type: cell-based
Conditions: LNCaP, 18 h, HiBiT-tagged AR in human LnCaP cells, read-out: mean asymptote max
Method: Degradation of Androgen Receptor protein in human LnCaP cells treated with PROTACs was quantified using the Nano-Glo® HiBiT Lytic Detection System (Promega) in 384 well assay plate format. A clonal LnCaP derived cell line was first established in which the AR gene was modified, using CRISPR/Cas9 editing, so the expressed AR protein included an 11 amino acid HiBiT tag at its amino-terminus. 10 mM DMSO stock solutions of PROTACs were prepared and diluted across an 11 concentration, 3 fold increment range, and 25 nL dispensed into a white opaque bottomed 384 well assay plate (Thermofisher) using an acoustic ECHO dispenser (Labcyte). […] For the assay, cells were detached from flask and resuspended with assay medium (FluoroBrite™ DMEM supplemented with 10% heat inactivated FBS, penicillin 50 U/mL and streptomycin 50 ug/mL (Thermofisher)). The cell suspension was centrifuged at 400 g for 5 min and the pellet resuspended in assay medium. 25 μL of cell suspension containing 10,000 cells was dispensed into each well of the assay plate containing the test compounds, which was then incubated for 18 h at 37° C./5% CO2. Control wells were included on each assay plate, with assay medium without cells being the no AR remaining 100% effect control, and cells treated with DMSO vehicle only, without PROTAC, the 0% effect control. 25 μL of Nano-Glo® HiBiT lysis buffer supplemented with LgBiT protein and Nano-Glo® substrate (Promega) was added to each well and the plate shaken at 500 rpm for 10 min at room temperature. The intensity of luminescence was measured using a PHERAstar microplate reader (BMG Labtech) and the % AR protein remaining in each well calculated by normalising the raw luminescence value to the above control wells. Parameters corresponding to the potency and efficacy estimates of the PROTACs were obtained from these normalised luminescence values using software (IDBS ActivityBase). These included the DC50 and the Dmax estimates. Two versions of the DC50, called relative DC50 and absolute DC50, were typically generated. These are the inflection point of a fitted 4 parameter sigmoidal response curve and the interpolated concentration of PROTAC corresponding to 50% of the protein being degraded, respectively. The Dmax parameter was the maximum experimentally observed degradation and the asymptote max parameter the fitted response curve asymptote maximum.

Row | Compound | Dmax
1 | N#Cc1ccc(O[C@H]2CC[C@H](NC(=O)c3ccc(N4CCC(CN5CCC(n6ccc7c(N8CCC(=O)NC8=O)cncc76)CC5)CC4)nc3)CC2)cc1C(F)(F)F [AR19, N-((1r,4r)-4-(4-Cyano-3-(trifluoromethyl)phenoxy)cyclohexyl)-6-(4-((4-(4-(2,4-dioxotetrahydropyrimidin-1(2H)-yl)-1H-pyrrolo[2,3-c]pyridin-1-yl)piperidin-1-yl)methyl)piperidin-1-yl)nicotinamide] | ≥ 50%
2 | N#Cc1ccc(O[C@H]2CC[C@H](NC(=O)c3cnc(N4CCC(CN5CCC(n6ncc7c(N8CCC(=O)NC8=O)cc(F)cc76)CC5)CC4)nc3)CC2)cc1Cl [AR205, N-((1r,4r)-4-(3-Chloro-4-cyanophenoxy)cyclohexyl)-2-(4-((4-(4-(2,4-dioxotetrahydropyrimidin-1(2H)-yl)-6-fluoro-1H-indazol-1-yl)piperidin-1-yl)methyl)piperidin-1-yl)pyrimidine-5-carboxamide] | ≥ 50%
3 | N#Cc1ccc(O[C@H]2CC[C@H](NC(=O)c3ccc(N4CCN(C[C@H]5CC[C@H](n6ccc7c(N8CCC(=O)NC8=O)cccc76)CC5)CC4)nn3)CC2)cc1Cl [AR215, N-((1r,4r)-4-(3-Chloro-4-cyanophenoxy)cyclohexyl)-6-(4-(((1r,4r)-4-(4-(2,4-dioxotetrahydropyrimidin-1(2H)-yl)-1H-indol-1-yl)cyclohexyl)methyl)piperazin-1-yl)pyridazine-3-carboxamide hydrochloride] | ≥ 50%
4 | N#Cc1ccc(O[C@H]2CC[C@H](NC(=O)c3cnc(N4CCC(CN5CCC(n6ncc7c(N8CCC(=O)NC8=O)cncc76)CC5)CC4)nc3)CC2)cc1Cl [AR216, N-((1r,4r)-4-(3-chloro-4-cyanophenoxy)cyclohexyl)-2-(4-((4-(4-(2,4-dioxotetrahydropyrimidin-1(2H)-yl)-1H-pyrazolo[3,4-c]pyridin-1-yl)piperidin-1-yl)methyl)piperidin-1-yl)pyrimidine-5-carboxamide] | ≥ 50%
5 | N#Cc1ccc(O[C@H]2CC[C@H](NC(=O)c3cnc(N4CCC(CN5CCC(n6ccc7c(N8CCC(=O)NC8=O)cccc76)CC5)CC4)cn3)CC2)cc1Cl [EAR9, N-((1r,4r)-4-(3-Chloro-4-cyanophenoxy)cyclohexyl)-5-(4-((4-(4-(2,4-dioxotetrahydropyrimidin-1(2H)-yl)-1H-indol-1-yl)piperidin-1-yl)methyl)piperidin-1-yl)pyrazine-2-carboxamide] | ≥ 50%
6 | CC1(C)[C@H](NC(=O)c2cnc(N3CCC(CN4CCC(n5ccc6c(N7CCC(=O)NC7=O)cccc65)CC4)CC3)nc2)C(C)(C)[C@H]1Oc1ccc(C#N)c(Cl)c1 [EAR11, N-((1r,3r)-3-(3-Chloro-4-cyanophenoxy)-2,2,4,4-tetramethylcyclobutyl)-2-(4-((4-(4-(2,4-dioxotetrahydropyrimidin-1(2H)-yl)-1H-indol-1-yl)piperidin-1-yl)methyl)piperidin-1-yl)pyrimidine-5-carboxamide] | ≥ 50%
7 | N#Cc1ccc(O[C@H]2CC[C@H](NC(=O)c3ccc(N4CCC(CN5CCC(n6ccc7c(N8CCC(=O)NC8=O)cccc76)CC5)CC4)nc3)CC2)cc1Cl [EAR13, N-((1r,4r)-4-(3-Chloro-4-cyanophenoxy)cyclohexyl)-6-(4-((4-(4-(2,4-dioxotetrahydropyrimidin-1(2H)-yl)-1H-indol-1-yl)piperidin-1-yl)methyl)piperidin-1-yl)nicotinamide] | ≥ 50%
8 | CC1(C)[C@H](NC(=O)c2ccc(N3CCC(CN4CCC(n5ccc6c(N7CCC(=O)NC7=O)cncc65)CC4)CC3)nc2)C(C)(C)[C@H]1Oc1ccc(C#N)c(Cl)c1 [EAR20, N-((1r,3r)-3-(3-Chloro-4-cyanophenoxy)-2,2,4,4-tetramethylcyclobutyl)-6-(4-((4-(4-(2,4-dioxotetrahydropyrimidin-1(2H)-yl)-1H-pyrrolo[2,3-c]pyridin-1-yl)piperidin-1-yl)methyl)piperidin-1-yl)nicotinamide] | ≥ 50%
9 | N#Cc1ccc(O[C@H]2CC[C@H](NC(=O)c3cnc(N4CCC(CN5CCC(n6ccc7c(N8CCC(=O)NC8=O)cccc76)CC5)CC4)cn3)CC2)cc1C(F)(F)F [EAR22, N-((1r,4r)-4-(4-Cyano-3-(trifluoromethyl)phenoxy)cyclohexyl)-5-(4-((4-(4-(2,4-dioxotetrahydropyrimidin-1(2H)-yl)-1H-indol-1-yl)piperidin-1-yl)methyl)piperidin-1-yl)pyrazine-2-carboxamide hydrochloride] | ≥ 50%
10 | N#Cc1ccc(O[C@H]2CC[C@H](NC(=O)c3ccc(N4CCC(CN5CCC(n6ccc7c(N8CCC(=O)NC8=O)cccc76)CC5)CC4)nn3)CC2)cc1Cl [EAR23, N-((1r,4r)-4-(3-Chloro-4-cyanophenoxy)cyclohexyl)-6-(4-((4-(4-(2,4-dioxotetrahydropyrimidin-1(2H)-yl)-1H-indol-1-yl)piperidin-1-yl)methyl)piperidin-1-yl)pyridazine-3-carboxamide] | ≥ 50%
11 | N#Cc1ccc(O[C@H]2CC[C@H](NC(=O)c3ccc(N4CCC(CN5CCC(n6ccc7c(N8CCC(=O)NC8=O)cccc76)CC5)CC4)nn3)CC2)cc1C(F)(F)F [EAR24, N-((1r,4r)-4-(4-Cyano-3-(trifluoromethyl)phenoxy)cyclohexyl)-6-(4-((4-(4-(2,4-dioxotetrahydropyrimidin-1(2H)-yl)-1H-indol-1-yl)piperidin-1-yl)methyl)piperidin-1-yl)pyridazine-3-carboxamide] | ≥ 50%
12 | N#Cc1ccc(O[C@H]2CC[C@H](NC(=O)c3ccc(N4CCC(CN5CCC(Cn6ccc7c(N8CCC(=O)NC8=O)cccc76)CC5)CC4)nn3)CC2)cc1Cl [EAR26, N-((1r,4r)-4-(3-Chloro-4-cyanophenoxy)cyclohexyl)-6-(4-((4-((4-(2,4-dioxotetrahydropyrimidin-1(2H)-yl)-1H-indol-1-yl)methyl)piperidin-1-yl)methyl)piperidin-1-yl)pyridazine-3-carboxamide hydrochloride] | ≥ 50%
13 | N#Cc1ccc(O[C@H]2CC[C@H](NC(=O)c3ccc(N4CCC(N5CCC(Cn6ccc7c(N8CCC(=O)NC8=O)cccc76)CC5)CC4)nn3)CC2)cc1Cl [EAR27, N-((1r,4r)-4-(3-Chloro-4-cyanophenoxy)cyclohexyl)-6-(4-((4-(2,4-dioxotetrahydropyrimidin-1(2H)-yl)-1H-indol-1-yl)methyl)-[1,4′-bipiperidin]-1′-yl)pyridazine-3-carboxamide hydrochloride] | ≥ 50%
14 | N#Cc1ccc(O[C@H]2CC[C@H](NC(=O)c3ccc(N4CCCC(N5CCC(n6ccc7c(N8CCC(=O)NC8=O)cccc76)CC5)C4)cc3)CC2)cc1Cl (stereo partly drawn) [EAR28, N-((1r,4r)-4-(3-Chloro-4-cyanophenoxy)cyclohexyl)-4-(4-(4-(2,4-dioxotetrahydropyrimidin-1(2H)-yl)-1H-indol-1-yl)-[1,3′-bipiperidin]-1′-yl)benzamide] | ≥ 50%
15 | N#Cc1ccc(O[C@H]2CC[C@H](NC(=O)c3ccc(N4CCC(CN5CCC(n6ccc7c(N8CCC(=O)NC8=O)cc(F)cc76)CC5)CC4)nn3)CC2)cc1Cl [EAR31, N-((1r,4r)-4-(3-Chloro-4-cyanophenoxy)cyclohexyl)-6-(4-((4-(4-(2,4-dioxotetrahydropyrimidin-1(2H)-yl)-6-fluoro-1H-indol-1-yl)piperidin-1-yl)methyl)piperidin-1-yl)pyridazine-3-carboxamide hydrochloride] | ≥ 50%
16 | N#Cc1ccc(O[C@H]2CC[C@H](NC(=O)c3ccc(N4CCC(CN5CCC(n6ccc7c(N8CCC(=O)NC8=O)cc(Cl)cc76)CC5)CC4)nn3)CC2)cc1Cl [EAR32, 6-(4-((4-(6-Chloro-4-(2,4-dioxotetrahydropyrimidin-1(2H)-yl)-1H-indol-1-yl)piperidin-1-yl)methyl)piperidin-1-yl)-N-((1r,4r)-4-(3-chloro-4-cyanophenoxy)cyclohexyl)pyridazine-3-carboxamide hydrochloride] | ≥ 50%
17 | N#Cc1ccc(O[C@H]2CC[C@H](NC(=O)c3ccc(N4CCC(CN5CCC(n6ncc7c(N8CCC(=O)NC8=O)cc(F)cc76)CC5)CC4)nn3)CC2)cc1Cl [EAR33, N-((1r,4r)-4-(3-Chloro-4-cyanophenoxy)cyclohexyl)-6-(4-((4-(4-(2,4-dioxotetrahydropyrimidin-1(2H)-yl)-6-fluoro-1H-indazol-1-yl)piperidin-1-yl)methyl)piperidin-1-yl)pyridazine-3-carboxamide] | ≥ 50%
18 | N#Cc1ccc(O[C@H]2CC[C@H](NC(=O)c3ccc(N4CCC(CN5CCC(n6ncc7c(N8CCC(=O)NC8=O)cc(Cl)cc76)CC5)CC4)nn3)CC2)cc1Cl [EAR34, 6-(4-((4-(6-Chloro-4-(2,4-dioxotetrahydropyrimidin-1(2H)-yl)-1H-indazol-1-yl)piperidin-1-yl)methyl)piperidin-1-yl)-N-((1r,4r)-4-(3-chloro-4-cyanophenoxy)cyclohexyl)pyridazine-3-carboxamide hydrochloride] | ≥ 50%
